Converted amounts (≈) assume the structure as drawn. Like-named read-outs stand apart in the source and are kept apart here.
What was measured:
NOX2 [1] = molecular target: T1, NOX2 (Homo sapiens, UniProt P04839); test: NOX2 activity in primary human granulocytes (PMN), luminol chemiluminescence; format: cell-based; design: When tested against NOX2 in primary human neutrophils; endogenous in cells; host or cells: primary human granulocytes (PMN) from donor blood; settings: mean ± SD, n in cell; read-out: NOX-2 IC50 from PMN
T1 sequence (P04839 2-570 limits assumed): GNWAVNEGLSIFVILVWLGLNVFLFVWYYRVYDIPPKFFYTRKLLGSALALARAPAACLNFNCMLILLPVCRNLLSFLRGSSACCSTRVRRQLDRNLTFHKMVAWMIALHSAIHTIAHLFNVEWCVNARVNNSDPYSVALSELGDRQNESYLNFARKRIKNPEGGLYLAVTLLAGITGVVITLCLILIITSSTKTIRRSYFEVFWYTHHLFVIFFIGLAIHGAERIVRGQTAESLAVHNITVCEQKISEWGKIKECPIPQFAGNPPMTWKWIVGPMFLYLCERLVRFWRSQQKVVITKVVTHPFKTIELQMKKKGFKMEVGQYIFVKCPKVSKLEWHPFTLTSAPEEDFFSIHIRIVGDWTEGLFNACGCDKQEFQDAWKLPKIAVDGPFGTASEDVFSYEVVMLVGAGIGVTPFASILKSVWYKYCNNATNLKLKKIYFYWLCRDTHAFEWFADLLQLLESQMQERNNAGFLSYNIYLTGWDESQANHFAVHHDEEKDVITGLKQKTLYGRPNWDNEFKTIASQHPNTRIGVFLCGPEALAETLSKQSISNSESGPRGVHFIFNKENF
T1 sequence (P13498 2-195 partner limits assumed): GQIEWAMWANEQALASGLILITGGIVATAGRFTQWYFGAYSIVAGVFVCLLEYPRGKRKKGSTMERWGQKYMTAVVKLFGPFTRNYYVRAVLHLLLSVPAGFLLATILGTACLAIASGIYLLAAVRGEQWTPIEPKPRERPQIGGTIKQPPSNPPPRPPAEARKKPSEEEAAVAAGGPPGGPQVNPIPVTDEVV
Protocol: (§1) Human blood was obtained after informed consent by the Department of Transfusion Medicine (NIH Clinical Center) and provided as de-identified specimens. Human granulocytes were isolated using Percoll density fractionation as described and NOX2 activity was assessed in white polypropylene flat bottom 96 well plates following 15 min of preincubation at 37 °C with compounds or vehicle controls using 50 μM luminol as a chemiluminescence enhancer in an assay volume of 100 μl RPMI1640 with 1.1 × 10^5 cells/well in Varioskan Lux luminometer for 30 cycles of 1 s per well (approximately 1 h).

[2] = Aqueous kinetic solubility in PBS buffer; format: physicochemical
Protocol: (§2) The rat liver microsomal stability, parallel artificial membrane permeability assay (PAMPA), and aqueous kinetic solubility assay in phosphate-buffered saline (PBS) buffer were performed as described in the indicated references.

Bovine Xanthine Oxidase = molecular target: T2, Bovine Xanthine Oxidase (Bos taurus, UniProt P80457); test: Xanthine oxidase / hypoxanthine luminol chemiluminescence assay; format: biochemical; settings: xanthine oxidase with hypoxanthine; mean ± SD, n in cell; read-out: X/XO IC50
T2 construct: purchased Sigma
Protocol: Bovine Xanthine Oxidase (Sigma) was dialyzed in PBS to remove ammonium sulfate and stored at 4 °C. Hypoxanthine was prepared by heating in DMSO. Reactions were prepared by diluting xanthine oxidase in HBSS (final concentration 1.25 mU/mL) that contained 50 μM luminol and were preincubated 5 min with control or inhibitor before the addition of hypoxanthine at a final concentration of 0.5 mM. Luminescence was measured at 24 °C as described above.

[3] = Parallel artificial membrane permeability assay (PAMPA); format: in vitro ADME; settings: for Papp: pH 7.4, PAMPA, pH7.4, read-out: Permeability(pH7.4) (PAMPA_Pion_Lipid 1e-6 cm/s)
Protocol: as §2

[4] = Rat liver microsomal stability; format: in vitro ADME; settings: for half-life: SD, rat, liver microsomes, read-out: Rat_SD/Microsomes t1/2 (m)
Protocol: as §2

NOX1-NOX5 = test: Expi293 whole cell assays, comparison across panel of NOX family members; format: cell-based, human
Protocol: Given concerns about previous assays for specific NOX family members we here report the first use of the Expi293 Expression System (Thermo Scientific) to overexpress NOX1, 2, 3, 4, and 5 in excess of any endogenous NOX proteins present in these cells. Transfections were performed following the manufacturer's instructions using the plasmids for each NOX as described in Supplemental Table 2 except that the enhancer solution provided with the Expi293 system was not used because it promoted enzyme activation.
After the times indicated in Supplemental Table 2, cells were washed and 50,000 added per well of a white 96-well plate (Greiner) along with 50 μM Luminol and 2.5 U horseradish peroxidase/mL in a volume of 90 μl for NOX1, NOX2, and NOX5. Inhibitors or vehicle controls were added and cells were incubated for 20 min at 37 °C prior to activation with the indicated stimuli. For NOX3 and NOX4 (constitutively active), cells were incubated with inhibitor or vehicle control prior to the addition of luminol and HRP. Chemiluminescence was measured every 2 min for 1 s per well at 37 °C in a Varioscan Multimode reader. AUC data were analyzed using GraphPad Prism using non-linear regression analysis after expressing relative to control alone (maximum ROS production).

NOX2 [5] = settings: read-out: IC50 for NOX2, originally reported; cited from earlier work
NOX2 [6] = molecular target: T3, NOX2 (Mus musculus, UniProt Q61093); test: NOX2 activity in primary mouse neutrophils enriched from bone marrow; format: cell-based; settings: SD, n = 8 mice
T3 construct: relative potencies in primary mouse neutrophils enriched from bone marrow; endogenous in cells; host or cells: primary mouse bone-marrow granulocytes
T3 sequence (Q61093 2-570 limits assumed): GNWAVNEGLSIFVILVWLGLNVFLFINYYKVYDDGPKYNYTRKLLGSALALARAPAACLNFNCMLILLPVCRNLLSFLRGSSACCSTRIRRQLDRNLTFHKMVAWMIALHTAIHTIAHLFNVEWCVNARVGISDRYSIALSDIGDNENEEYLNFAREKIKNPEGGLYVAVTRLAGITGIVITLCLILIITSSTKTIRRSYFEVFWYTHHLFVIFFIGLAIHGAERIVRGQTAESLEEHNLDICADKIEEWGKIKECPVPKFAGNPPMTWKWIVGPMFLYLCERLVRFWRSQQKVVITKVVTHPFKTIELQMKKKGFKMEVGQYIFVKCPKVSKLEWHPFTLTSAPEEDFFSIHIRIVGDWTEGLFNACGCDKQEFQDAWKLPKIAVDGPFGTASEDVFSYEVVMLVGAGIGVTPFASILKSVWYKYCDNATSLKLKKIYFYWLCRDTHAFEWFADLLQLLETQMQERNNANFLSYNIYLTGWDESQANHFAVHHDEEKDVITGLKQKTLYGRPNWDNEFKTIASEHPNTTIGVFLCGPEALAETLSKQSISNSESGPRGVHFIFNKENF
T3 sequence (Q61462 2-192 partner limits assumed): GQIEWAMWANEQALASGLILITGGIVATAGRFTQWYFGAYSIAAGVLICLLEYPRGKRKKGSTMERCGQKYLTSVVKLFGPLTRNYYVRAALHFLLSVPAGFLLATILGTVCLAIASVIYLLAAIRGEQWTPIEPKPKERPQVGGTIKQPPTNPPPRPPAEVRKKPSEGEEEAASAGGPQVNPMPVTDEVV
Protocol: as §1
Mouse granulocytes were isolated from bone marrow essentially as described except bones were not sterilized in ethanol and marrow was not flushed through a 100 μm strainer. Furthermore, RPMI1640 was supplemented with 10% FBS, 2 mM EDTA, and 25 mM HEPES buffer and penicillin/streptomycin was omitted. Polymorphonuclear leukocytes (PMN) concentration and purity (>90% granulocytes) were assessed microscopically using 3% acetic acid and a hemacytometer. NOX2 activity was assessed as described above with human granulocytes.

xanthine oxidase = settings: cited from earlier work
[7] = aqueous buffer, kinetic from dmso stock, read-out: Solubility

T2 sequence (P80457 whole entry): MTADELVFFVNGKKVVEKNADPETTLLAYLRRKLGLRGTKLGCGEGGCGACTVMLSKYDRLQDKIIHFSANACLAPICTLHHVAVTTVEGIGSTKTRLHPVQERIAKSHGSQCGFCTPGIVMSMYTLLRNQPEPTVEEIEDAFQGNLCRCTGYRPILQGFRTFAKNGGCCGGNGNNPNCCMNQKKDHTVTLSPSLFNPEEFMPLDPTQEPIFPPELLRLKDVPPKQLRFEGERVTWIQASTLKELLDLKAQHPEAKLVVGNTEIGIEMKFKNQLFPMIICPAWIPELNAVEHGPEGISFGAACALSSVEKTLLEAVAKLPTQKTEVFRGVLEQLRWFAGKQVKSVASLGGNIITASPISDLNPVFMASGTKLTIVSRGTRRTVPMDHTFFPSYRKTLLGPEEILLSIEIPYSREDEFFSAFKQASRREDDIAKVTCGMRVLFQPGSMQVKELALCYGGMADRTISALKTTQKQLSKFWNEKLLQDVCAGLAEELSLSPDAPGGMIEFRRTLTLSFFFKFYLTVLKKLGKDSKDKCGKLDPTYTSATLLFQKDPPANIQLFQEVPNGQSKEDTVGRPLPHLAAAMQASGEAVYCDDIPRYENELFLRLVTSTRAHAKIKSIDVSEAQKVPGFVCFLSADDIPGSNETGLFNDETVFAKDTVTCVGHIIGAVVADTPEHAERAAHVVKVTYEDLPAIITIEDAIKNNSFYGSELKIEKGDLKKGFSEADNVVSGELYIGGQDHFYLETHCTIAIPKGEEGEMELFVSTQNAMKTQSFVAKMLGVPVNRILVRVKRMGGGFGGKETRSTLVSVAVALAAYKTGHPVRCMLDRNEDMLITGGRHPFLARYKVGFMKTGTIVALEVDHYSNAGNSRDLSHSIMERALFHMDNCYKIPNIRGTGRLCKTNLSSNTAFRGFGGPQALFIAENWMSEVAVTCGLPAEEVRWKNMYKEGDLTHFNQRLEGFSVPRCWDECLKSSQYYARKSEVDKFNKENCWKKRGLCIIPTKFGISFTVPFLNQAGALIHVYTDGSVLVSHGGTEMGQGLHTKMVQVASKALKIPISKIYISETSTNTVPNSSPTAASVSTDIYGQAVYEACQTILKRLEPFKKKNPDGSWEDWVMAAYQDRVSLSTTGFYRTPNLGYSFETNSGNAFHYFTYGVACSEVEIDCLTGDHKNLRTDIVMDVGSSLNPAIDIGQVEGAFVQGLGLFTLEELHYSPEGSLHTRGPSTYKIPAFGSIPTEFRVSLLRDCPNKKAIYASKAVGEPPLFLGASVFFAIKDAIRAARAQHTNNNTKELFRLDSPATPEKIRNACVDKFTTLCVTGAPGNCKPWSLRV

For `Cn1ccc([S+](=O)([O-])Nc2ccnc3c2c(-c2ccc4c(c2)C(O)CC4)cn3C2CC2)n1` (centres unmarked) [NCGC00650073, CN1C=CC(=N1)[S+]([O-])(=O)NC2=C3C(=CN(C4CC4)C3=NC=C2)C5=CC6=C(CCC6O)C=C5], the IC50 (NOX2 [1]) was > 20 µM, the solubility [2, 7] was 31.1 µg/mL (≈ 69.2 µM) and the IC50 (Bovine Xanthine Oxidase) was 19 µM. The Papp [3] was 182 ×10⁻⁶ cm/s and the half-life [4] was 18.2 min.
For `CNC1CCc2ccc(-c3cn(C4CC4)c4nccc(N[S+](=O)([O-])c5ccn(C)n5)c34)cc21` (centres unmarked) [NCGC00650057, CNC1CCC2=C1C=C(C=C2)C3=CN(C4CC4)C5=NC=CC(N[S+]([O-])(=O)C6=NN(C)C=C6)=C35], the IC50 (NOX2 [1]) was 1.61 µM, the solubility [2, 7] was > 68 µg/mL and the IC50 (Bovine Xanthine Oxidase) was 2.29 ± 3.23 µM. It also gave a Papp [3] of 4 ×10⁻⁶ cm/s and a half-life [4] of 17.9 min.
Molecule `CN1CCc2ccc(-c3cn(CC(F)(F)F)c4nccc(N[S+](=O)([O-])c5ccn(C)n5)c34)cc21` [NCGC00600903, CN1C=CC(=N1)[S+]([O-])(=O)NC2=C3C(=CN(CC(F)(F)F)C3=NC=C2)C4=CC5=C(CCN5C)C=C4] has an IC50 (NOX2 [1]) of 1.68 ± 2.07 µM, a solubility [2, 7] of 12.2 µg/mL (≈ 24.9 µM) and an IC50 (Bovine Xanthine Oxidase) of 0.056 ± 0.079 µM. The Papp [3] was 53.6 ×10⁻⁶ cm/s and the half-life [4] was 3.3 min.
In the case of `Cn1ccc([S+](=O)([O-])Nc2ccnc3c2c(-c2ccc4c(c2)C(=O)CC4)cn3C2CC2)n1` [NCGC00650061, CN1C=CC(=N1)[S+]([O-])(=O)NC2=C3C(=CN(C4CC4)C3=NC=C2)C5=CC6=C(CCC6=O)C=C5], the IC50 (NOX2 [1]) is reported as 4.25 µM, the solubility [2, 7] is reported as > 66 µg/mL and the IC50 (Bovine Xanthine Oxidase) is reported as 2.34 ± 2.32 µM. For the same molecule, the Papp [3] was 72.8 ×10⁻⁶ cm/s and the half-life [4] was 11.8 min.
In the case of `CN(C)C1CCc2ccc(-c3cn(C4CC4)c4nccc(N[S+](=O)([O-])c5ccn(C)n5)c34)cc21` (centres unmarked) [NCGC00650075, CN(C)C1CCC2=C1C=C(C=C2)C3=CN(C4CC4)C5=NC=CC(N[S+]([O-])(=O)C6=NN(C)C=C6)=C35], the IC50 (NOX2 [1]) is reported as 0.0555 µM, the solubility [2, 7] is reported as 39.7 µg/mL (≈ 83.3 µM) and the IC50 (Bovine Xanthine Oxidase) is reported as 3.2 µM. The Papp [3] was 293 ×10⁻⁶ cm/s and the half-life [4] was 14 min.
For `CC(C)n1cc(-c2ccc3c(c2)N(C)CC3)c2c(NS(=O)(=O)c3ccn(C)n3)ccnc21` [GSK2795039, reference compound], the “differences in activity across the panel of NOX family members” value (NOX1-NOX5) is listed as “unable to demonstrate significant differences in activity”, the IC50 (NOX2 [5]) is listed as […] and the “solubility” value [2] is listed as 36.7 µg/mL (≈ 81.5 µM). For the same molecule, the IC50 (NOX2 [6]) was 2.17 ± 1.11 µM, the “greater concentrations required to inhibit xanthine oxidase than NOX2” value (xanthine oxidase) was […] and the IC50 (Bovine Xanthine Oxidase) was 0.603 ± 0.059 µM. The “Permeability(pH7.4) (PAMPA_Pion_Lipid 1e-6 cm/s)” value [3] was 1034.17 1e-6 cm/s and the “Rat_SD/Microsomes t1/2 (m)” value [4] was 1.02 m.
For `Cn1ccc([S+](=O)([O-])Nc2ccnc3c2c(-c2ccc4c(c2)CCC4)cn3C2CC2)n1` [NCGC00650026, CN1C=CC(=N1)[S+]([O-])(=O)NC2=C3C(=CN(C4CC4)C3=NC=C2)C5=CC6=C(CCC6)C=C5], the IC50 (NOX2 [1]) was 3.1 ± 2.59 µM, the solubility [2, 7] was 1 µg/mL (≈ 2.31 µM) and the IC50 (Bovine Xanthine Oxidase) was > 20 µM. For the same molecule, the Papp [3] was 1420 ×10⁻⁶ cm/s and the half-life [4] was 0.9 min.

Source: publication PMC9894920, “Development of an improved and specific inhibitor of NADPH oxidase 2 to treat traumatic brain injury” (Redox Biology, 2023)
